Measured values published in patent publication US5444042A, “Method of treatment of neurodegeneration with calpain inhibitors” (Cortex Pharmaceuticals, priority 1994, dated 1995).
Like-named read-outs stand apart in the source and are kept apart here.

Assays:
Calpain within platelets = assay: Platelet membrane permeation assay, spectrin proteolysis (Examples 4A, 4B); format: cell-based, rat; details: for effect on intracellular (platelet) Calpain: concentration not given; for inhibition of Calpain within platelets: A23187 1 μM; for IC50: concentration at which 50% of the Calpain activation present in controls occurred
Experimental: Platelets were isolated by a modification of the method of Ferrell and Martin, J Biol. Chem., 264:20723-20729 (1989), the disclosure of which is hereby incorporated by reference. Blood (15-20 ml) was drawn from male Sprague-Dawley rats into 100 mM EDTA-citrate containing 10 units heparin, and centrifuged 30 minutes at 1600 rpm at room temperature. The plasma was resuspended in 15 ml buffer 1 (136 mM NaCl, 2.7 mM KCl, 0.42 mM NaH2 PO4, 12 mM NaHCO3, 2 mM MgCl2, 2 mg/ml BSA (Sigma), 5.6 mM glucose, 22 mM Na3 Citrate pH 6.5) and platelets were isolated at 2200 rpm at room temperature of 25 minutes. Platelets were resuspended to 10^7 cells/ml in buffer 2 (136 mM NaCl, 2.7 mM KCl, 0.42 NaH2 PO4, 12 mM NaHCO3, 2 mM MgCl, 1 mg/ml BSA, 5.6 mM glucose, 20 mM HEPES pH 7.4) and allowed to "rest" for a minimum of 10 minutes at room temperature before use.
Platelets were incubated for 5 minutes in the presence of inhibitor. In order to provide sufficient intracellular calcium to activate Calpain, the calcium ionophore A23187 was added to a final concentration of 1 μM. After a further 5 minute incubation, the platelets were harvested by centrifugation (1 min 10,000×g) and resuspended in 10% sodium dodecyl sulfate, 10 mM Tris pH=8.0, 5% β-mercaptoethanol, 0.02% bromophenol blue, and heated to 95° C. for 5 min. Samples were subjected to SDS-PAGE on 6% mini gels and transferred to nitrocellulose (Schleicher and Schuell BAS3) for 2 hours at 100 mA/gel in an LKB Novablot. Filters were blocked for 10 minutes in 0.25% gelatin, 1% BSA, 0.25% Triton X100, 0.9% NaCl, 10 mM Tris-Cl pH 7.5, incubated overnight in the same solution containing antibody to rat spectrin, washed 3×10 minutes with 10 mM Tris-Cl pH 7.5, 0.5 % Triton X100, incubated 4 hours in wash buffer plus alkaline phosphatase conjugated goat anti-rabbit antibody (Biorad), and washed as above. Filters were developed using the Biorad AP conjugate substrate kit. Spectrin immunoreactivity on the filters was quantitated by densitometry.

Papain = target: T1, Papain (Carica papaya, UniProt P00784); assay: Papain inhibition, Ki by Dixon plot (Table PKC1); format: biochemical; details: 5 mM cysteine, 25° C.
T1 sequence (P00784 134-345): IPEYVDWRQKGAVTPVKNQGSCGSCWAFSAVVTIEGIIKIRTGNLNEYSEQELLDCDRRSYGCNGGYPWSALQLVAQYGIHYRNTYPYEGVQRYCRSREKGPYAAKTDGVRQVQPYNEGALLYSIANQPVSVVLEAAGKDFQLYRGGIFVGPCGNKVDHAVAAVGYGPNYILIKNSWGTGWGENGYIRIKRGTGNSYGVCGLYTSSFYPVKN
Experimental: (§1) Various concentrations of inhibitors in dimethylsulfoxide (DMSO) were added to the assay mixture, which contained buffer and substrate. The reaction was started by the addition of the enzyme and the hydrolysis rates were followed spectrophotometrically or fluorimetrically. 88 mM KH2 PO4, 12 mM Na2 HPO4, 1.33 mM EDTA, 2.7 mM cysteine, pH 6.0 was used as a buffer for cathepsin B; and 20 mM Hepes, 10 mM CaCl2, 10 mM β-mercaptoethanol, pH 7.2 buffer was utilized for calpain I and calpain II.
(§2) All peptide thioester hydrolysis rates were measured with assay mixtures containing 4,4'-dithiodipyridine [e324=19800 M-1 cm-1; Grasetti & Murray, Arch. Biochem. Biophys. 119, pp 41-49 (1967)]. Papain was assayed with Bz-Arg-AMC or Bz-Arg-NA [Kanaoka et al., Chem. Pharm. Bull. 25, 3126-3128 (1977)], and the AMC (7-amino-4-methylcoumarin) release was followed fluorimetrically (excitation at 380 nm, and emission at 460 nm). Cathepsin B was assayed with Z-Arg-Arg-AFC [Barrett and Kirschke, Methods Enzymol. 80, 535-561 (1981)], and the AFC (7-amino-4-trifluoromethylcoumarin) release was followed fluorimetrically (excitation at 400 nm, and emission at 505 nm). Calpain I from human erythrocytes and calpain II from rabbit were assayed using Suc-Leu-Tyr-AMC [Sasaki et al., J. Biol. Chem. 259, 12489-12494 (1984), hereby incorporated by reference], and the AMC (7-amino-4-methylcoumarin) release was followed fluorimetrically (excitation at 380 nm, and emission at 460 nm). Enzymatic hydrolysis rates were measured at various substrate and inhibitor concentrations, and Ki values were determined by Dixon plot.
The inhibition constants for papain shown in Table PKC1 were measured in 0.05M Tris-HCl, pH 7.5 buffer, containing 2 mM EDTA, 5 mM cysteine (freshly prepared), 1% DMSO, at 25° C., using N^α -Benzoyl-Arg-AMC as a substrate, except that those values of inhibition constants for papain marked with an "e" in Table PKC1 were measured in 50 mM Tris-HCl, pH 7.5 buffer, containing 20 mM EDTA, 5 mM cysteine, 9% DMSO, at 25° C., using N^α -Benzoyl-Arg-NA as a substrate.

Cathepsin B [1] = target: T2, Cathepsin B (Bos taurus, UniProt P07688); assay: Cathepsin B inhibition, Z-Arg-Arg-AFC (Table PKC1); format: biochemical; details: pH 6.0 phosphate buffer, substrate Z-Arg-Arg-AFC; read-out: Ki CB (Cathepsin B)
Experimental: as §1, §2

[2] = tested on: Calpain in crude brain extracts; assay: Ca2+-stimulated spectrin proteolysis in crude brain extracts (Example 2); format: biochemical; details: 100 μM
Experimental: The activity of Calpain in crude brain extracts was measured by examining the Ca^2+ -stimulated proteolysis of the endogenous substrate spectrin. Brain tissue was homogenized in 10 mM Tris pH=7.4, 0.32M sucrose, 1 mM EGTA, 1 mM dithiothreitol and the nuclei and debris removed by low speed centrifugation. […] Proteolysis of spectrin was evaluated by western blot as described by Seubert, et at. (Brain Research, 459:226-232, 1988), the disclosure of which is hereby incorporated by reference. Briefly, a known quantity of a spectrin-containing sample treated with Calpain is separated by SDS-PAGE and immunoblotted with anti-spectrin antibody. The amount of spectrin immunoreactivity found corresponding to the characteristic BDP's is indicative of the amount of […] activity present in the sample. An examplary method for quantitating BDP's is to assay Spectrin BDP's by homogenizing brain parts in 20 mM Tris pH=7.2, 0.32M sucrose, 50 μM Ac-Leu-Leu-nLeu-H on ice. Homogenates are then mixed 1:1 with 10% SDS, 5% β-mercaptoethanol, 10% glycerol, 10 mM Tris pH=8.0, 0.5% bromophenolblue, heated to 95° C., and subjected to electrophoresis in 41/2% polyacrylamide gels. The proteins in the gels are transferred to nitrocellulose and the spectrin and BDP's detected using a rabbit polyclonal anti-spectrin antibody and established immunodetection methods. The amount of spectrin and BDP's in each sample can be quantitated by densitrometric scanning of the developed nitrocellulose.

Cathepsin B [3] = target: T2, Cathepsin B; assay: Cathepsin B KI (Table 1B(ii)); format: biochemical; details: read-out: KI CathB
Excerpt: (§3) We tested the ability of an additional group of Peptide Keto-Compounds to inhibit several proteases in order to evaluate their specificity for Calpain.

Calpain I = target: T3, Calpain I (Homo sapiens, UniProt P07384); assay: Calpain I KI (Table 1B(ii)); format: biochemical; details: Table 1B(ii)
T3 sequence (P07384 1-714): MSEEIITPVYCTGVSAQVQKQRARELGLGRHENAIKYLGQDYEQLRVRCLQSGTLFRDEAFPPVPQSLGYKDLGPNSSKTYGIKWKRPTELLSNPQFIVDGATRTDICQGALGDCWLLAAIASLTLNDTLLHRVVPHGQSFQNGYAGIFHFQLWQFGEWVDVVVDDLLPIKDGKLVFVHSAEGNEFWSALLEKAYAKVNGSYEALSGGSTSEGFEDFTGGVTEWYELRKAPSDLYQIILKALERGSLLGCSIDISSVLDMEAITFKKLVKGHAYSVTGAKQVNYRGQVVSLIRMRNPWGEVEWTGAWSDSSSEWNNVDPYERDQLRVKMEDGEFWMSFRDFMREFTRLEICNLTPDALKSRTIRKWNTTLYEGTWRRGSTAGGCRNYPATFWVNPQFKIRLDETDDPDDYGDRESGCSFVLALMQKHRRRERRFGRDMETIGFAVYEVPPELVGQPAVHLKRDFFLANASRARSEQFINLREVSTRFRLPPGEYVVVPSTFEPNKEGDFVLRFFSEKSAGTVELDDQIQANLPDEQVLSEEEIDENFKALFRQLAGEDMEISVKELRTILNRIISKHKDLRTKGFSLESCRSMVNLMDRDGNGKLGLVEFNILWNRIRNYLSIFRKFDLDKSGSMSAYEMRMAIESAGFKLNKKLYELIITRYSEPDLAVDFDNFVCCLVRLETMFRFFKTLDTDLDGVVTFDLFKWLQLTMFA
T3 sequence (P04632 1-268 partner): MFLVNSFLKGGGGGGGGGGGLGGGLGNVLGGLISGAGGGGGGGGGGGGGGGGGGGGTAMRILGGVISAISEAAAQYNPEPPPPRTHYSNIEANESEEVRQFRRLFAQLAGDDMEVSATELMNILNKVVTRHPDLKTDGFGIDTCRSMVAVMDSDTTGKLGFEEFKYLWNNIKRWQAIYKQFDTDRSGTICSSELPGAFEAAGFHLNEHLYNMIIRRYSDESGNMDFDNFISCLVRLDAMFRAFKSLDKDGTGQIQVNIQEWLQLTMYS
Excerpt: as §3

Chym = Chym (Bos taurus, UniProt P00766); assay: Chym KI (Table 1B(ii)); format: biochemical
Excerpt: as §3

PP Elastase = PP Elastase (Sus scrofa, UniProt P00772); assay: PP Elastase KI (Table 1B(ii)); format: biochemical
Chain of PP Elastase (P00772 27-266): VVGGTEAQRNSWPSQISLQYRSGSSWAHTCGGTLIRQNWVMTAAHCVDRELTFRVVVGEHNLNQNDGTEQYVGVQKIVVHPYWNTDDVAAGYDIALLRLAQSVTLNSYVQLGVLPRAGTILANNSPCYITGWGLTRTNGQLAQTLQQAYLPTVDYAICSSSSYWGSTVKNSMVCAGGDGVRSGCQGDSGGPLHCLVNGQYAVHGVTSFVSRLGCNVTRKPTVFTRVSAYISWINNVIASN
Excerpt: as §3

Stability in plasma = format: in vitro ADME; details: unit assumed
Excerpt: We determined the haft-life of several Peptide Keto-Compounds in both plasma and liver homogenates.

Calpain II = Calpain II KI (Table 1B(ii)); format: biochemical
Excerpt: as §3

[4] = 50 mM Tris-HCl pH 7.5, 20 mM EDTA, 9% DMSO, substrate Nα-Benzoyl-Arg-NA, read-out: Ki P (Papain), values marked e
[5] = 0.05M Tris-HCl pH 7.5, 2 mM EDTA, 1% DMSO, substrate Nα-Benzoyl-Arg-AMC, read-out: Ki P (Papain)

Compound	Ki (Cathepsin B [1]) [µM]	Ki (Papain; [5]) [µM]	inhibition of Calpain within platelets (Calpain within platelets; 100 μM)	Ki (Cathepsin B [3]) [µM]	Ki (Calpain I) [µM]	Ki (Chym) [µM]	Ki (PP Elastase) [µM]	t1/2 plasma (Stability in plasma) [min]	other results
CCOC(=O)C(=O)C(Cc1ccccc1)NC(=O)c1ccccc1 (racemic) [Bz-DL-Phe-COOEt, Bz-DL-Phe-CO2 Et]	64	–	–	–	–	–	–	–	effect on intracellular (platelet) Calpain (Calpain within platelets): failed to exhibit Calpain inhibitory activity; Ki (Papain; [4]): 500 µM; inhibition of spectrin proteolysis in crude brain extracts [2]: significant inhibition
COC(=O)CCC(=O)NC(C(=O)N1CCCC1C(=O)NC(Cc1ccccc1)C(=O)C(=O)OC)C(C)C (racemic) [MeO-Suc-Val-Pro-DL-Phe-COOMe, MeO-Suc-Val-Pro-DL-Phe-CO2 Me]	0.1	1.1	–	–	–	–	–	–	effect on intracellular (platelet) Calpain (Calpain within platelets): failed to exhibit Calpain inhibitory activity; Ki (Papain; [4]): 2.9 µM; inhibition of spectrin proteolysis in crude brain extracts [2]: significant inhibition
CCC(NC(=O)[C@H](C)NC(=O)[C@H](C)NC(=O)OCc1ccccc1)C(=O)C(=O)OCc1ccccc1 (mixture of isomers) [Z-Ala-Ala-DL-Abu-COOBzl, Z-Ala-Ala-DL-Abu-CO2 Bzl]	60	30	significant inhibition	–	–	–	–	–	–
CCCC(NC(=O)C(C)NC(=O)C(C)NC(=O)OCc1ccccc1)C(=O)C(=O)OCC (racemic) [Z-Ala-Ala-DL-Nva-COOEt, Z-Ala-Ala-DL-Nva-CO2 Et]	0.1	30	–	–	–	–	–	–	–
CCOC(=O)C(=O)C(C)NC(=O)[C@@H]1CCCN1C(=O)[C@H](C)NC(=O)OCc1ccccc1 (mixture of isomers) [Z-Ala-Pro-DL-Ala-COOEt, Z-Ala-Pro-DL-Ala-CO2 Et]	66	26	–	–	–	–	–	–	–
CCOC(=O)C(=O)C(C)NC(=O)C(Cc1ccccc1)NC(=O)OCc1ccccc1 (racemic) [Z-Phe-DL-Ala-COOEt]	3.2	3.6	–	–	–	–	–	–	–
CCOC(=O)C(=O)C(Cc1ccccc1)NC(=O)C(Cc1ccccc1)NC(=O)OCc1ccccc1 (racemic) [Z-Phe-DL-Phe-COOEt]	0.1	1.8	–	–	–	–	–	–	–
CCOC(=O)C(=O)C(CC)NC(=O)C(CC(C)C)NC(=O)C(CC(C)C)NS(=O)(=O)c1ccc2ccccc2c1 (stereo not drawn) [2-NapSO2 -Leu-Leu-Abu-COOEt]	–	–	significant inhibition	25	16	35	47	> 60	IC50 (Calpain within platelets): 100 µM; Ki (Calpain II): 1.4 µM
CCOC(=O)C(=O)[C@H](CC)NC(=O)[C@H](CC(C)C)NC(=O)[C@H](CC(C)C)NS(=O)(=O)c1ccc(C)cc1 [Tos-Leu-Leu-Abu-COOEt]	–	–	–	69	33	25	28	30	IC50 (Calpain within platelets): 30 µM
CCCCOC(=O)C(=O)[C@H](Cc1ccccc1)NC(=O)[C@H](CC(C)C)NC(=O)OCc1ccccc1 [Z-Leu-Phe-COOnBu, Z-Leu-Phe-CO2 Bu]	–	–	significant inhibition	15	5	0.15	> 100	7.7	platelet assay, semi-quantitative (Calpain within platelets; semi-quantitative, 100 μM): +++; Ki (Calpain II): 1.1 µM
